According to article PMC8232766, “Chemical Composition and Immunomodulatory Activity of Essential Oils from Rhododendron albiflorum” (Molecules, 2021):
Each block holds one molecule with its values, some of them ahead of it.

Experiments:
human neutrophils [1] = settings: previous studies; cited from earlier work
human neutrophils [2] = test system: human neutrophils; set-up: method as in PMID 27586050, PMID 25959257; settings: direct effect; previous studies; cited from earlier work
HL60 cells = test: Cytotoxicity assay (CellTiter-Glo) in HL60 cells; assay type: cell-based, human; settings: 30 min, oils up to 25 µg/mL, compounds up to 25 µM
Protocol: Cytotoxicity of essential oils and pure compounds was analyzed in human promyelocytic HL60 cells using a CellTiter-Glo Luminescent Cell Viability Assay Kit (Promega), as described previously.

FPR2-HL60 cells = target: T1, FPR2-HL60 cells (Homo sapiens, UniProt P25090); test: Inhibition of WKYMVM-induced Ca2+ influx in FPR2-HL60 cells; assay type: cell-based; settings: pure compounds; 10 min preincubation; induced by 5 nM WKYMVM
T1 construct: expressed in transfected cells
T1 sequence (P25090 1-351): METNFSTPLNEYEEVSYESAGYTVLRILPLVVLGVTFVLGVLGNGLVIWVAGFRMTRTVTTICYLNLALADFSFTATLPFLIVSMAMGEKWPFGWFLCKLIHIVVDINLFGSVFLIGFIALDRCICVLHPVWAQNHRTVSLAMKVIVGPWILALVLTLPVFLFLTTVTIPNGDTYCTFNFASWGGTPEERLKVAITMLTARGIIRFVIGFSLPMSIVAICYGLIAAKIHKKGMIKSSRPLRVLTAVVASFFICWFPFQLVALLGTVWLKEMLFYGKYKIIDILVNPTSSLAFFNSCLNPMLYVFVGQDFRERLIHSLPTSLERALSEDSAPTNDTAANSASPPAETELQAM
Protocol: (§1) Human promyelocytic leukemia HL60 cells stably transfected with FPR1 (FPR1-HL60 cells) or FPR2 (FPR2-HL60 cells) were kindly provided by Dr. Marie-Josephe Rabiet, INSERM, Grenoble, France. These cells were cultured in RPMI 1640 medium containing 10% heat-inactivated fetal calf serum, 10 mM HEPES, 100 μg/mL streptomycin, 100 U/mL penicillin, and G418 (1 mg/mL). G418 was removed before assays were performed.
(§2) Changes in intracellular Ca^2+ concentrations ([Ca^2+]i) in human neutrophils were measured with a FlexStation 3 scanning fluorometer (Molecular Devices), as previously described. To assess the direct effects of test compounds or pure essential oils on Ca^2+ influx, the compounds/oils were added to the wells (final concentration of DMSO was 1%), and changes in fluorescence were monitored (λex = 485 nm, λem = 538 nm) every 5 s for 240 s at room temperature after addition of the test compound. To evaluate inhibitory effects of the compounds on FPR1/FPR2-dependent Ca^2+ influx, the compounds were added to the wells (final concentration of DMSO was 1%) with cells (human neutrophils or FPR1/FPR2 HL60 cells). The samples were preincubated for 10 min, followed by addition of 5 nM fMLF (for human neutrophils or FPR1-HL60 cells) or 5 nM WKYMVM (for FPR2-HL60 cells). The maximum change in fluorescence, expressed in arbitrary units over baseline, was used to determine the agonist response. Responses were normalized to the response induced by 5 nM fMLF or 5 nM WKYMVM, which were assigned as 100%.
(§3) For all Ca^2+ influx experiments, curve fitting (at least five or six points) and calculation of median effective concentration values (EC50 or IC50) were performed by nonlinear regression analysis of the dose–response curves generated using Prism 7 (GraphPad Software, Inc., San Diego, CA, USA).

[3] = test system: human C20 microglial cells; test: Inhibition of fMLF-induced Ca2+ influx in C20 microglial cells; assay type: cell-based; settings: 10 min, pure compounds, 10 min incubation, induced by 10 μM fMLF
Protocol: (§4) Human C20 microglial cells were kindly provided by Dr. David Alvarez-Carbonell (Department of Molecular Biology and Microbiology, Case Western Reserve University, Cleveland, OH, USA); these are immortalized primary human microglial cells that maintain characteristics of primary microglial cells. C20 cells were grown at 37 °C and 5% CO2 in DMEM:F12 medium supplemented with 10% FBS, 2.5 mM L-glutamine, 110 mg/L sodium pyruvate, 15 mM HEPES, 100 μg/mL normocin, 100 μg/mL streptomycin, and 100 U/mL penicillin.
(§5) For analysis of Ca^2+ influx in C20 microglial cells, the cells were plated in 96-well black, clear bottom plates at 10^4 cells/well in DMEM/F12 medium containing 10% FBS. The cells were treated with 200 nM PMA for 24 h, and the medium was changed every day for 5 days. On day 5, the cells were loaded with FLIPR Calcium 5 (Molecular Devices) at a volume ratio of 1:1 for 30 min at 37 °C in the dark. The plates were then placed in a FlexStation 3 fluorometer, and basal fluorescence was measured (λex = 485 nm, λem = 538 nm). Essential oils or individual compounds of interest were added manually (final concentration of DMSO was 1%), and fluorescence was monitored for 2 min to assess the direct effects of these treatments on [Ca^2+]i. After a 10 min incubation at 37 °C, the fluorescence baseline was recorded again, and 10 µM fMLF was added to evaluate inhibitory effects on agonist-induced [Ca^2+]i. Responses were normalized to the response induced by 10 µM fMLF.
as §3

human neutrophils [4] = test: Inhibition of fMLF-induced Ca2+ influx in human neutrophils; assay type: cell-based; settings: pure compounds, 10 min preincubation, induced by 5 nM fMLF; for IC50: Homo sapiens, Neutrophil
Source text: (§6) For isolation of human neutrophils, blood was collected from healthy donors in accordance with a protocol approved by the Institutional Review Board at Montana State University (Protocol #MQ041017), as described previously. Isolated neutrophils were washed and resuspended in HBSS^–. Neutrophil preparations were routinely >95% pure and >98% viable. Neutrophils were obtained from multiple different donors (n = 8); however, the cells from different donors were never pooled during experiments.
as §2, §3

human neutrophils [5] = test: Ca2+ influx (direct effect) in human neutrophils; assay type: cell-based; settings: pure compounds, direct effect on [Ca2+]i, mean ± SD of three experiments; for EC50: Homo sapiens, Neutrophil
Source text: as §6, §2, §3

human neutrophils [6] = test: Neutrophil chemotaxis assay (fMLF-induced); assay type: cell-based; settings: pure compounds, chemotaxis induced by 1 nM fMLF; for IC50: Homo sapiens, Neutrophil
Source text: as §6
Human neutrophils were resuspended in HBSS^+ containing 2% (v/v) heat-inactivated fetal bovine serum (2 × 10^6 cells/mL), and chemotaxis was analyzed in 96-well ChemoTx chemotaxis chambers (Neuroprobe, Gaithersburg, MD), as described previously. Curve fitting (at least eight to nine points) and calculation of median effective concentration values (IC50) were performed by nonlinear regression analysis of the dose-response curves generated using GraphPad Prism 8.

MAPKAPK2 = target: T2, MAPKAPK2 (Homo sapiens, UniProt P49137); test: KINOMEscan kinase Kd determination, MAPKAPK2; assay type: binding; settings: maximum concentration of 33 µM
T2 construct: purchased Eurofins Pharma Discovery, San Diego, CA, USA (KINOMEscan service)
T2 sequence (P49137 whole entry): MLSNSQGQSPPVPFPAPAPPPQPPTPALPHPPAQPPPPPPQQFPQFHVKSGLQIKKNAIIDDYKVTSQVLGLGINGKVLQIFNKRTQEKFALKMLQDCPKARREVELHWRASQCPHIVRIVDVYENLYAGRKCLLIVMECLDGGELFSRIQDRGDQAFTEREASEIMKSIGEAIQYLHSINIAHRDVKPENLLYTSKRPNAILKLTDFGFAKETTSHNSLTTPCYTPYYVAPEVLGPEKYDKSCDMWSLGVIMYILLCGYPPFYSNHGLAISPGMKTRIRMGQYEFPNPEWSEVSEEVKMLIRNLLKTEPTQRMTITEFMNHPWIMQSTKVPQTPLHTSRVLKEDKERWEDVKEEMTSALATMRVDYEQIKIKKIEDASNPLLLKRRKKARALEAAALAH
Protocol: (§7) KINOMEscan®® was used to determine the dissociation constant (Kd) of the indicated sesquiterpenes for selected kinases (Eurofins Pharma Discovery, San Diego, CA, USA). […] Assays were performed in duplicate, and the average mean value is shown.

[7] = test system: human C20 microglial cells; test: Ca2+ influx (direct effect) in C20 microglial cells; assay type: cell-based; settings: pure compounds, direct effect on [Ca2+]i, mean ± SD of three experiments; for EC50: Homo sapiens
Protocol: as §4, §5, §3

PIM1 = target: T3, PIM1 (Homo sapiens, UniProt P11309); test: KINOMEscan kinase Kd determination, PIM1; assay type: binding; settings: maximum concentration of 33 µM
T3 construct: purchased Eurofins Pharma Discovery, San Diego, CA, USA (KINOMEscan service)
T3 sequence (P11309 whole entry): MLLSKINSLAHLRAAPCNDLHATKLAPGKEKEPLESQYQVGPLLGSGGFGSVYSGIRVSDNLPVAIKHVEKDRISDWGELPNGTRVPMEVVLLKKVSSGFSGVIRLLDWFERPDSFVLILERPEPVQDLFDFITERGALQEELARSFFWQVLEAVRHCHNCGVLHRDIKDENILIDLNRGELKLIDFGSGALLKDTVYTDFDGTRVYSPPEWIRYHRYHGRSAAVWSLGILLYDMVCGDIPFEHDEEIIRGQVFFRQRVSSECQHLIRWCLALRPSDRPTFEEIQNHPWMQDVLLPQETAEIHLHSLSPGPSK
Protocol: as §7

FPR1-HL60 cells = target: T4, FPR1-HL60 cells (Homo sapiens, UniProt P21462); test: Inhibition of fMLF-induced Ca2+ influx in FPR1-HL60 cells; assay type: cell-based; settings: pure compounds; 10 min preincubation; induced by 5 nM fMLF
T4 construct: expressed in transfected cells
T4 sequence (P21462 1-350): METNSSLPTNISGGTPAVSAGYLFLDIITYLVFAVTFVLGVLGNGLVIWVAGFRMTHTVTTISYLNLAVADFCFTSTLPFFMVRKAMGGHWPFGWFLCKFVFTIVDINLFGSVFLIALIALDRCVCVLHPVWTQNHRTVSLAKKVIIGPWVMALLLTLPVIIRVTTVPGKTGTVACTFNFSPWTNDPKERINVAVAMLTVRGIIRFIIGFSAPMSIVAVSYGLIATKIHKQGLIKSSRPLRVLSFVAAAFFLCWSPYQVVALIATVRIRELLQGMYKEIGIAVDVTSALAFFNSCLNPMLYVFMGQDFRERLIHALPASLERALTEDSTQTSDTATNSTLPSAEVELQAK
Protocol: as §1, §2, §3

JNK3 = target: T5, JNK3 (Homo sapiens, UniProt P53779); test: KINOMEscan kinase Kd determination, JNK3; assay type: binding; settings: maximum concentration of 33 µM
T5 construct: purchased Eurofins Pharma Discovery, San Diego, CA, USA (KINOMEscan service)
T5 sequence (P53779 whole entry): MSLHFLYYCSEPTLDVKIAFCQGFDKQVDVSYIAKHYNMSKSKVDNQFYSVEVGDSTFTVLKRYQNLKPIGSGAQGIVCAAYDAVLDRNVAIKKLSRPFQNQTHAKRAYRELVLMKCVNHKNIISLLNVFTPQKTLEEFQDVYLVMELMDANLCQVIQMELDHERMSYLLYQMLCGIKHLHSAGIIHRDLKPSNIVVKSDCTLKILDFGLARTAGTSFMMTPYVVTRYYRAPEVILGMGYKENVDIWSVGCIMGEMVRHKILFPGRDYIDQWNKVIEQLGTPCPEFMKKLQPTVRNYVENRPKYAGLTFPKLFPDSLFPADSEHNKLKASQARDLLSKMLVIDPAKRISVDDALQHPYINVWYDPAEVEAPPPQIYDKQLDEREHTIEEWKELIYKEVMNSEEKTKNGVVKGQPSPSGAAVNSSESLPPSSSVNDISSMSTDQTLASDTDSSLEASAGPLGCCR
Protocol: as §7

SMILES: C=C1C2CCC(C2)C1(C)C (centres unmarked) [camphene]
Inhibition of agonist-induced neutrophil Ca2+ mobilization (human neutrophils [1]): no inhibitory effect

SMILES: C=CC(C)(O)CCC=C(C)C (centres unmarked) [linalool]
Activation of neutrophil Ca2+ mobilization (human neutrophils [2]): no activating effects
Inhibition of agonist-induced neutrophil Ca2+ mobilization (human neutrophils [1]): no inhibitory effect

SMILES: CC1=CC=C(C(C)C)CC1 [α-terpinene]
Activation of neutrophil Ca2+ mobilization (human neutrophils [2]): no activating effects
Inhibition of agonist-induced neutrophil Ca2+ mobilization (human neutrophils [1]): no inhibitory effect

SMILES: CC1=CCC(C(C)C)=CC1 [γ-terpinene]
Activation of neutrophil Ca2+ mobilization (human neutrophils [2]): no activating effects
Inhibition of agonist-induced neutrophil Ca2+ mobilization (human neutrophils [1]): no inhibitory effect

IC50 (FPR2-HL60 cells): 31.6 ± 5.3 µM
IC50 [3]: 9.8 ± 3.4 µM
IC50 (human neutrophils [4]): 36.2 ± 8.2 µM
EC50 (human neutrophils [5]): 39.4 ± 9.5 µM
IC50 (human neutrophils [6]): 4.9 ± 0.8 µM
Binding affinity (Kd) toward MAPKAPK2 (MAPKAPK2): did not observe any binding activity
EC50 [7]: > 50 µM
Ca2+ Influx C20 cells EC50 [7]: inactive or had very low activity
Binding affinity (Kd) toward PIM1 (PIM1): did not observe any binding activity
IC50 (FPR1-HL60 cells): 32.2 ± 6.4 µM
Binding affinity (Kd) toward JNK3 (JNK3): did not observe any binding activity
SMILES: C=C1CC[C@@H]2[C@H]([C@H]3[C@H]1CC[C@]3(C)O)C2(C)C [Spathulenol, spathulenol]
Cell viability (cytotoxicity), 30 min incubation (HL60 cells): minimal effects on cell viability

SMILES: Cc1ccc(C(C)C)cc1 [p-cymene]
Activation of neutrophil Ca2+ mobilization (human neutrophils [2]): no activating effects
Inhibition of agonist-induced neutrophil Ca2+ mobilization (human neutrophils [1]): no inhibitory effect

SMILES: C=C1C=CC(C(C)C)CC1 (stereo not drawn) [β-Phellandrene, β-phellandrene]
FPR2-HL60 Ca2+ Influx IC50 (FPR2-HL60 cells): no effect
IC50 (FPR2-HL60 cells): > 50 µM
IC50 [3]: > 50 µM
IC50 (human neutrophils [4]): > 50 µM
Neutrophils Ca2+ Influx IC50 (human neutrophils [4]): no effect
EC50 (human neutrophils [5]): > 50 µM
Ca2+ Influx Neutrophils EC50 (human neutrophils [5]): inactive
IC50 (human neutrophils [6]): > 50 µM
Neutrophils Chemotaxis IC50 (human neutrophils [6]): inactive
EC50 [7]: > 50 µM
Ca2+ Influx C20 cells EC50 [7]: inactive
FPR1-HL60 Ca2+ Influx IC50 (FPR1-HL60 cells): no effect
IC50 (FPR1-HL60 cells): > 50 µM

SMILES: C=C1CCC2(C(C)C)CC12 (centres unmarked) [sabinene]
Activation of neutrophil Ca2+ mobilization (human neutrophils [2]): no activating effects
Inhibition of agonist-induced neutrophil Ca2+ mobilization (human neutrophils [1]): no inhibitory effect

SMILES: CC1=CCC(=C(C)C)CC1 [terpinolene]
Activation of neutrophil Ca2+ mobilization (human neutrophils [2]): no activating effects
Inhibition of agonist-induced neutrophil Ca2+ mobilization (human neutrophils [1]): no inhibitory effect
